Results on 23 compounds are retold here after patent US20040242871A1, “Novel arylheteroalkylamine derivatives” (priority 2001, published 2004).

Molecules are shown by their SMILES.

Broadly, the melting point is the temperature of the solid-liquid transition. `COc1cc(S[C@H](C[C@H](N)CO)c2ccccc2)c(C#N)cn1` [Example 10, 4-[[(1R,3S)-3-Amino-4-hydroxy-1-phenylbutyl-]thio]-6-methoxy-3-pyridinecarbonitrile (E)-butenedioate] displayed a melting point of 172 to 173 °C.
`COc1cc(S[C@H](C[C@@H](N)CO)c2ccccc2)c(C#N)cn1.O=C(O)/C=C/C(=O)O` [Example 11, 4-[[(1R,3R)-3-Amino-4-hydroxy-1-phenylbutyl]thio]-6-methoxy-3-pyridinecarbonitrile (E)-butenedioate] returned a melting point of 221 to 223 °C.
The figure for `COc1cc(S[C@@H](C[C@@H](N)CO)c2ccccc2)c(C#N)cn1.O=C(O)/C=C/C(=O)O` [Example 12, 4-[[(1S,3R)-3-Amino-4-hydroxy-1-phenylbutyl]thio]-6-methoxy-3-pyridinecarbonitrile, (E)-butenedioate] is 162.5 to 163 °C; for `COc1cc(S[C@@H](C[C@H](N)CO)c2ccccc2)c(C#N)cn1.O=C(O)/C=C/C(=O)O` [Example 13, 4-[[(1S,3S)-3-Amino-4-hydroxy-1-phenylbutyl]thio]-6-methoxy-3-pyridinecarbonitrile (E)-butenedioate] it is 213 to 228 °C; for `N#Cc1cnc(OC(F)F)cc1S[C@H](C[C@H](N)CO)c1ccccc1.O=C(O)/C=C/C(=O)O` [Example 14, 4-[[(1R,3S)-3-Amino-4-hydroxy-1-phenylbutyl]thio]-6-(difluoromethoxy)-3-pyridinecarbonitrile (E)-butenedioate] it is 144 to 146 °C.
The figure for `CC(=O)c1ccc(C#N)c(S[C@H](C[C@H](N)CO)c2ccccc2)n1.Cl` [Example 20, 6-Acetyl-2-[[(1R,3S)-3-amino-4-hydroxy-1-phenylbutyl]thio]-3-pyridinecarbonitrile Hydrochloride] is 78 °C; for `N#Cc1ccc(CO)nc1S[C@H](C[C@H](N)CO)c1ccccc1.O=C(O)/C=C/C(=O)O` [Example 21, 2-[[(1R,3S)-3-Amino-4-hydroxy-1-phenylbutyl]thio]-6-(hydroxymethyl)-3-pyridinecarbonitrile (E)-butenedioate] it is 147 to 149 °C.
For `N#Cc1cccnc1S[C@H](C[C@H](N)CO)c1ccccc1.O=C(O)/C=C/C(=O)O` [Example 22, 2-[[(1R,3S)-3-Amino-4-hydroxy-1-phenylbutyl]thio]-3-pyridinecarbonitrile (E)-butenedioate], the melting point was 67 to 69 °C.
The figure for `CNc1cc(S[C@H](C[C@H](N)CO)c2ccccc2)c(C#N)cn1.Cl.Cl` [Example 26, 4-[[(1R,3S)-3-Amino-4-hydroxy-1-phenylbutyl]thio]-6-(methylamino)-3-pyridinecarbonitrile dihydrochloride] is 206 to 208 °C; for `COc1cc(S[C@H](C[C@H](N)CO)c2ccccc2)c(Br)cn1` [Example 27, (β^1S,β^1R)-β-Amino-δ-[(5-bromo-2-methoxy-4-pyridinyl)thio]-benzenebutanol (E)-2-butenedioate] it is 178 to 180 °C.
For `COc1cc(S[C@H](C[C@H](N)CO)c2ccccc2)c(Cl)cn1` [Example 28, (β^1S,β^1R) β-Amino-δ-[(5-chloro-2-methoxy-4-pyridinyl)thio]-benzenebutanol (E)-2-butenedioate], the melting point fell in the range of 191 to 193 °C.
Under `CCOc1cc(S[C@H](C[C@H](N)CO)c2ccccc2)c(C#N)cn1` [Example 29, 4-[[(1R,3S)-3-Amino-4-hydroxy-1-phenylbutyl]thio]-6-ethoxy-3-pyridinecarbonitrile. (E)-butenedioate] stands 169.5 to 171.5 °C; under `N#Cc1ncc(C(F)(F)F)cc1S[C@H](C[C@H](N)CO)c1ccccc1.O=C(O)C(=O)O` [Example 30, 3-[[(1R,3S)-3-Amino-4-hydroxy-1-phenylbutyl]thio]-5-(trifluoromethyl)-2-pyridinecarbonitrile ethanedioate], 147 to 149 °C; under `COc1cc(S[C@H](C[C@H](N)CO)c2ccccc2F)c(C#N)cn1.O=C(O)C(=O)O` [Example 35, 4-[[(1R,3S)-3-Amino-1-(2-fluorophenyl)-4-hydroxybutyl]thio]-6-methoxy-3-pyridinecarbonitrile ethanedioate], 179 to 185 °C.
Turning to `N#Cc1ccc(C(F)(F)F)nc1O[C@H](C[C@H](N)CO)c1ccc(F)cc1.O=C(O)C(=O)O` [Example 36, 2-[[(1R,3S)-3-Amino-1-(4-fluorophenyl)-4-hydroxybutyl]oxy]-6-trifluoromethyl-3-pyridinecarbonitrile ethanedioate], the melting point lay in the range of 109 to 114 °C.
Under `N#Cc1ccc(S[C@H](C[C@H](N)CO)c2ccccc2)c(Cl)c1.O=C(O)C(=O)O` [Example 43, 4-[[(1R,3S)-3-Amino-4-hydroxy-1-phenylbutyl]thio]-3-chlorobenzonitrile ethanedioate] stands 142 to 144 °C.
As for `CCN[C@H](CO)C[C@@H](Oc1cc(Cl)c(F)cc1C#N)c1nccs1.O=C(O)C(=O)O` [Example 44, 4-Chloro-2-[[(1R,3S)-3-(ethylamino)-4-hydroxy-1-(2-thiazolyl)butyl]oxy]-5-fluoro-benzonitrile ethanedioate salt], the melting point lay within 55 to 80 °C.
Compound `N#Cc1cc(F)ccc1O[C@H](C[C@H](N)CO)c1cncs1.O=C(O)/C=C/C(=O)O` [Example 45, 2-[[(1R,3S)-3-Amino-4-hydroxy-1-(5-thiazolyl)butyl]oxy]-5-fluoro-benzonitrile (2E)-2-butenedioate] displayed a melting point of 163 to 165 °C.
Regarding `CC(C)(O)[C@@H](N)C[C@@H](Oc1cc(Cl)c(F)cc1C#N)c1ccccc1.O=C(O)C(=O)O` [Example 47, 2-[[(1R,3S)-3-Amino-4-hydroxy-4-methyl-1-phenylpentyl]oxy]-4-chloro-5-fluoro benzonitrile ethanedioate], the melting point came out at 80 °C.
The compound `CCC[C@@H](C[C@H](N)CO)Oc1cc(Cl)c(F)cc1C#N.O=C(O)C(=O)O` [Example 48, 2-[[(1S,3S)-3-Amino-4-hydroxy-1-propylbutyl]oxy]-4-chloro-5-fluorobenzonitrile ethanedioate] registered a melting point of 171 to 172 °C.
`Cc1ccc(C#N)c(SC(C[C@H](N)CO)c2ccno2)n1.O=C(O)/C=C/C(=O)O` (stereo partly drawn) [Example 51, 2-[[(3S)-3-Amino-4-hydroxy-1-(5-isoxazolyl)butyl]thio]-6-methyl-3-pyridinecarbonitrile (E)-butenedioate] came in with a melting point of 150 to 152 °C.
The figure for `N#Cc1ccc(C(F)(F)F)nc1OC(C[C@H](N)CO)c1ccno1.O=C(O)/C=C/C(=O)O` (stereo partly drawn) [Example 52, 2-[[(3S)-3-Amino-4-hydroxy-1-(5-isoxazolyl)butyl]oxy]-6-(trifluoromethyl)-3-pyridinecarbonitrile, (E)-butenedioate] is 150 to 152 °C; for `N#Cc1cc(F)c(Cl)cc1O[C@H](C[C@H](N)CO)c1ccsc1.O=C(O)C(=O)O` [Example 54, 2-[[3-(3S)-Amino-4-hydroxy-1(R)-(3-thienyl)butyl]oxy]-4-chloro-5-fluorobenzonitrile ethanedioate] it is 111 to 115 °C.
